The record followed here is patent US12258344B2, “Azaaromatic amide derivatives for the treatment of cancer” (SHENZHEN FORWARD PHARMACEUTICALS CO., LTD., priority 2019, dated 2025).

What all share (assay type): cell-based
One assay deals with BaF3 (EGFR-A763insFQEA) (Homo sapiens, UniProt P00533, INS763FQEA, cells depend on it). The assay can be described thus: Test 3: BaF3 (EGFR-A763insFQEA) cell proliferation test. As to conditions: 72 hours, Cell Titer-Glo, read-out: Test 3 - IC50. Here is the method:
Test 3: BaF3 (EGFR-A763insFOEA) Cell Proliferation Test
BaF3 (EGFR-A763insFQEA) was cultured in RPMI1640 medium containing 10% fetal bovine serum and 2 mM glutamine. The cells were grown at 37° C. in a humidified incubator with 5% CO2.
(§1) The number of viable cells in the culture was measured according to the protocol described in Promega's Cell Titer-Glo Luminescent cell Viability Assay (Promega catalog number #G7570). 90 μl of cells (3,000 cells/well) were cultured in growth medium in a Corning black transparent bottom 96-well plate, and cultured in a 5% CO2 humidified incubator at 37° C. overnight. The compound serially diluted in 100% DMSO was added to the cells using a pipette, and the cells were incubated for another 72 hours. 100 μl of the mixed Cell Titer-Glo reagent was added to the cells in the 96-well culture plate to lyse the cells and mix gently. Subsequently, the […] was detected on the Envision microplate detector to obtain the data of each compound. Finally, the data was input into a suitable software package (such as Prism) for curve fitting analysis.
For orientation: Cellular ATP, detected with luciferase, serves as a proxy for viable cell number.

For a further assay, the target named is BaF3 (EGFR-V769insASV) (Homo sapiens, UniProt P00533, DUP767-769, cells depend on it). As to the kind of experiment: Test 4: BaF3 (EGFR-V769insASV) cell proliferation test. As to conditions: 72 hours, Cell Titer-Glo, read-out: Test 4 - IC50. Here is the method:
Test 4: BaF3 (EGFR-V769insASV) Cell Proliferation Test
BaF3 (EGFR-V769insASV) was cultured in RPMI1640 medium containing 10% fetal bovine serum and 2 mM glutamine. The cells were grown at 37° C. in a humidified incubator with 5% CO2.
as §1

Assay [1] has as its system NCI-H1975 (EGFR L858R/T790M double mutant). As to the kind of experiment: Test 1: EGFR L858R/T790M (EGFR double mutant) cell proliferation test. As to conditions: Homo sapiens; NCI-H1975 cells, 72 hours, Cell Titer-Glo.

BaF3 (EGFR-A763insFQEA), sequence (P00533 with tags, fused parts or gaps INS763FQEA): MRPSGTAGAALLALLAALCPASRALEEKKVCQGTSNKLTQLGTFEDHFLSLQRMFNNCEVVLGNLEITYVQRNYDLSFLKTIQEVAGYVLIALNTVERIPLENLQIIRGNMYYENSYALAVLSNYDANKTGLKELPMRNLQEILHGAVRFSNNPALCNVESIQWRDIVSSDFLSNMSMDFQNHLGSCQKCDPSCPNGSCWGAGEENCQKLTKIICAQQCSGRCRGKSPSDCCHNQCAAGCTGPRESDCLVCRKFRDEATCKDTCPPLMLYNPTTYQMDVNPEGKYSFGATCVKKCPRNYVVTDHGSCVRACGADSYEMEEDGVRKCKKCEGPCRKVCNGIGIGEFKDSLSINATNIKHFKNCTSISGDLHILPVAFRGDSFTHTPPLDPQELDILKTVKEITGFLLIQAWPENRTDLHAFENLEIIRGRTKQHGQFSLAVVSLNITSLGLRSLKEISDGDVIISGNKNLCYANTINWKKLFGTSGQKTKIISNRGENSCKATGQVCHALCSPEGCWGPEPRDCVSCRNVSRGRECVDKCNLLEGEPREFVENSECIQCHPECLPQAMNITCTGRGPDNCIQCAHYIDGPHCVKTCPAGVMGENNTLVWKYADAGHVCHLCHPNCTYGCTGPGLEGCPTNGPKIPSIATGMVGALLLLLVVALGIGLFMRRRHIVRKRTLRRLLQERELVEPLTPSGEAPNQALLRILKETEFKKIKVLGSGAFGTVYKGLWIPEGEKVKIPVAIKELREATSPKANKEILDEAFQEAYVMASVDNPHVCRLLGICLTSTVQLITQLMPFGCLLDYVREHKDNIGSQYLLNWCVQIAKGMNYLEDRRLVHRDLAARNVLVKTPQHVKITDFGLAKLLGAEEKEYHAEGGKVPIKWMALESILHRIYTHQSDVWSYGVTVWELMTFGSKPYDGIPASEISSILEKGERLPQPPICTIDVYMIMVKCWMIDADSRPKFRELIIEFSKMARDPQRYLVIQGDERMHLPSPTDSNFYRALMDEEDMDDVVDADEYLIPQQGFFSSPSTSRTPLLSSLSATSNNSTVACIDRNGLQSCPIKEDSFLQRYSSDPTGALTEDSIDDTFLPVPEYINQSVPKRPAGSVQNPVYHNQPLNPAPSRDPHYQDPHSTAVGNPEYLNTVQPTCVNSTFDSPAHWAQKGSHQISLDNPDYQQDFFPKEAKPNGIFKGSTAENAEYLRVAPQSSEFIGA
BaF3 (EGFR-V769insASV), sequence (P00533 with tags, fused parts or gaps DUP767-769): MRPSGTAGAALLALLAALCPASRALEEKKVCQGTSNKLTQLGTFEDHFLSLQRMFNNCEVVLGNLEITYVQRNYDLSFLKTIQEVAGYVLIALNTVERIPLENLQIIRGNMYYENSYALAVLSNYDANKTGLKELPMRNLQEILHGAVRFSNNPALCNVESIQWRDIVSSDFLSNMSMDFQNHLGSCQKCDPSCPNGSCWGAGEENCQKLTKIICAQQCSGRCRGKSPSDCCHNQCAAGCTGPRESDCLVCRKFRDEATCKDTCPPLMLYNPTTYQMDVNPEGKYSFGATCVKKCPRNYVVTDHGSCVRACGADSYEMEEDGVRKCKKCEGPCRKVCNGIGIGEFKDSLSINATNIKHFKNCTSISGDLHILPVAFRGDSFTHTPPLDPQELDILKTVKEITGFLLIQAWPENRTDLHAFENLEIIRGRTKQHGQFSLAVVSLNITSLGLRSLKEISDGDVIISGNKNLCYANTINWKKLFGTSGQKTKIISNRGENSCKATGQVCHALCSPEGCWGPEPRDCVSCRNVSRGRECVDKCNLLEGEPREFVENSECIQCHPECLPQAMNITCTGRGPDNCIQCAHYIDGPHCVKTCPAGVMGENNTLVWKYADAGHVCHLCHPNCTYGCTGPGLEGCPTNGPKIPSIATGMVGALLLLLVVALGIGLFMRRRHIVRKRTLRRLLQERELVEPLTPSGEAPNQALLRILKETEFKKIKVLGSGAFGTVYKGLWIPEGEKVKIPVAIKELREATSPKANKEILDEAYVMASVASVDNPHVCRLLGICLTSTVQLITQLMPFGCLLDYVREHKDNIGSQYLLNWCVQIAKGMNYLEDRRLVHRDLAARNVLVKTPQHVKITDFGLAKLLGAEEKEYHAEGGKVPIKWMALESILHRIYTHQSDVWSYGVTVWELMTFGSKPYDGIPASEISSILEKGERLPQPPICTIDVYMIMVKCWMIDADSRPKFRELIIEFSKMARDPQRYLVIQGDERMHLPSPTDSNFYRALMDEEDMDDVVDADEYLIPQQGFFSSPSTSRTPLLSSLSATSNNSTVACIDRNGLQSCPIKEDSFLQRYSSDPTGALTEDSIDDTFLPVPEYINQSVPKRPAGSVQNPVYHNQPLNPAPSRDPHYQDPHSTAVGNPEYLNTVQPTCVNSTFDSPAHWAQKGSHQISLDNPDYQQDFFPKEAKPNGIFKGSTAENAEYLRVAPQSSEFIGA

For orientation: IC50 means the midpoint of a concentration-inhibition curve. Read a high IC50 as weaker potency in that assay. Consider `C=CC(=O)Nc1cc(Nc2ncnc(-c3cn(C)c4ccc(F)cc34)n2)c(OC(F)F)cc1N(C)CCN(C)C` [Example 14, N-(4-(difluoromethoxy)-2-((2-(dimethylamino)ethyl)(methyl)amino)-5-((4-(5-fluoro-1-methyl-1H-indol-3-yl)-1,3,5-triazin-2-yl)amino)phenyl)acrylamide], for which the GI50 at BaF3 (EGFR-A763insFQEA) was found to be 7.6 nM; at BaF3 (EGFR-V769insASV), 25.9 nM. 16.8 nM corresponded to half-maximal inhibition in assay [1] (IC50).

For `C=CC(=O)Nc1cc(Nc2ncnc(-c3cn(C)c4ccc(F)cc34)n2)c(OC)cc1N(C)CCN(C)C` [Example 11], the figures for the GI50 at BaF3 (EGFR-A763insFQEA) and at BaF3 (EGFR-V769insASV) were 9.45 nM and 47.9 nM, respectively. Also, the IC50 in assay [1] amounted to 13.5 nM.

In the case of `C=CC(=O)Nc1cc(Nc2ncnc(-c3cn(C)c4ccc(F)cc34)n2)c(OCC(F)(F)F)cc1N(C)CCN(C)C` [Example 15, N-(2-((2-(dimethylamino)ethyl)(methyl)amino)-5-((4-(5-fluoro-1-methyl-1H-indol-3-yl)-1,3,5-triazin-2-yl)amino)-4-(2,2,2-trifluoroethoxy)phenyl)acrylamide], the GI50 on BaF3 (EGFR-A763insFQEA) came to 14 nM; at BaF3 (EGFR-V769insASV), 45 nM. This compound showed an IC50 in assay [1] of 12.7 nM.
